# Reference: ChEMBL document CHEMBL4402542, “Heat Shock Protein 90 Inhibitors: An Update on Achievements, Challenges, and Future Directions” (J Med Chem, 2020)
# pIC50, pKd, pKi: −log10 of the molar value.
# Key:
# [1] = tested on: MDA-MB-231; assay: Antiproliferative activity against human MDA-MB-231 cells; format: functional, cell-based
# [2] = Binding affinity to His6-tagged TPR2A (unknown origin) assessed as reduction in fluorescein-labeled C-terminal Hsp90/TRP2A protein-protein interaction incubated for 2 hrs by fluorescence polarization assay; design: species or system Homo sapiens
# [3] = tested on: NCI-H1299; assay: Antiproliferative activity against human NCI-H1299 cells incubated for 2 days followed by medium replacement by MTT assay; format: functional, cell-based; conditions: NCI-H1299, 48 h
# [4] = molecular target: T1, Heat shock protein HSP 90-alpha (Homo sapiens, UniProt P07900); assay: Inhibition of His6-tagged N-terminal human HSP90alpha expressed in Escherichia coli BL21 Lys cells preincubated for 10 mins followed by SA-APC and biotin-GM addition and measured after 6 hrs by TR-FRET assay
# [5] = molecular target: T2, Endoplasmin (Homo sapiens, UniProt P14625); assay: Displacement of FITC-geldanamycin from GRP94 (unknown origin) after 24 hrs by fluorescence polarization assay
# T2 sequence (P14625 whole entry): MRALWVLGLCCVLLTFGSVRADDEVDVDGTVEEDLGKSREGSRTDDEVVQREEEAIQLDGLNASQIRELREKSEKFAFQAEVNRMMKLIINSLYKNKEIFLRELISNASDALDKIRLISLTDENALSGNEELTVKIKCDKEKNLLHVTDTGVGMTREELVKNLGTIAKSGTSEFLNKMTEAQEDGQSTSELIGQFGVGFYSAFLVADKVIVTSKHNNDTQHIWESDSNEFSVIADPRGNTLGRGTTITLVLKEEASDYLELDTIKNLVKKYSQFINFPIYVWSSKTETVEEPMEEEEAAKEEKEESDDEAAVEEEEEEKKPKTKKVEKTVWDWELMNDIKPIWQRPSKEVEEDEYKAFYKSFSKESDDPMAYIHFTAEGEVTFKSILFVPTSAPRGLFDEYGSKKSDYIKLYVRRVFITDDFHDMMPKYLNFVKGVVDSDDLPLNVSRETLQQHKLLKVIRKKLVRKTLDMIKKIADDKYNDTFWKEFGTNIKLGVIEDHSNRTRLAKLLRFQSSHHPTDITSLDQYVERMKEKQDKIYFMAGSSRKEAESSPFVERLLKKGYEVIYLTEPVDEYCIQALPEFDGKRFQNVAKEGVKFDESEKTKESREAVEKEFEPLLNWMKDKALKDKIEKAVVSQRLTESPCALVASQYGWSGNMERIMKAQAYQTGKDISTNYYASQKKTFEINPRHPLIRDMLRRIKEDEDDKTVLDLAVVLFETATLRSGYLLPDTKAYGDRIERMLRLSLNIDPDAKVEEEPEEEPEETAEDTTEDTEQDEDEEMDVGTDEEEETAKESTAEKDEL
# [6] = tested on: MCF7; assay: Antiproliferative activity against human MCF7 cells after 72 hrs by MTS/PMS assay; format: functional, cell-based; conditions: MCF7, 72 h
# [7] = Binding affinity to His6-tagged TPR2A (unknown origin) by isothermal titration calorimetry; design: species or system Homo sapiens
# [8] = Antiproliferative activity against rat KNRK5.2 cells; format: functional, cell-based
# [9] = tested on: MCF7; assay: Antiproliferative activity against human MCF7 cells; format: functional, cell-based
# [10] = tested on: PANC-1; assay: Antitumor activity against human PANC1 cells xenografted in athymic mouse at 3 mg/kg, ip administered for 2 continuous days followed by 1 injection per 3 days and measured twice per week relative to control; format: functional; conditions: PANC-1, ip, 72 h, read-out: GI
# [11] = tested on: PANC-1; assay: Antiproliferative activity against human PANC1 cells after 24 hrs by MTS assay; format: functional, cell-based; conditions: PANC-1, 24 h
# [12] = tested on: MV4-11; assay: Antiproliferative activity against human MV4-11 cells after 120 hrs by TopCount scintillation analysis; format: functional, cell-based; conditions: MV4-11, 120 h
# [13] = molecular target: T1, Heat shock protein HSP 90-alpha; assay: Inhibition of FITC-geldanamycin binding to recombinant human HSP90alpha expressed in Escherichia coli preincubated for 2 hrs followed by Geldanamycin-FITC addition and measured after 5 hrs by fluorescence polarization competitive binding assay
# [14] = molecular target: Heat shock protein HSP 90-beta (Homo sapiens, UniProt P08238); assay: Inhibition of FITC-geldanamycin binding to recombinant human HSP90beta expressed in Escherichia coli preincubated for 2 hrs followed by Geldanamycin-FITC addition and measured after 5 hrs by fluorescence polarization competitive binding assay
# Heat shock protein HSP 90-beta, sequence (P08238 whole entry, the tested form may be a part): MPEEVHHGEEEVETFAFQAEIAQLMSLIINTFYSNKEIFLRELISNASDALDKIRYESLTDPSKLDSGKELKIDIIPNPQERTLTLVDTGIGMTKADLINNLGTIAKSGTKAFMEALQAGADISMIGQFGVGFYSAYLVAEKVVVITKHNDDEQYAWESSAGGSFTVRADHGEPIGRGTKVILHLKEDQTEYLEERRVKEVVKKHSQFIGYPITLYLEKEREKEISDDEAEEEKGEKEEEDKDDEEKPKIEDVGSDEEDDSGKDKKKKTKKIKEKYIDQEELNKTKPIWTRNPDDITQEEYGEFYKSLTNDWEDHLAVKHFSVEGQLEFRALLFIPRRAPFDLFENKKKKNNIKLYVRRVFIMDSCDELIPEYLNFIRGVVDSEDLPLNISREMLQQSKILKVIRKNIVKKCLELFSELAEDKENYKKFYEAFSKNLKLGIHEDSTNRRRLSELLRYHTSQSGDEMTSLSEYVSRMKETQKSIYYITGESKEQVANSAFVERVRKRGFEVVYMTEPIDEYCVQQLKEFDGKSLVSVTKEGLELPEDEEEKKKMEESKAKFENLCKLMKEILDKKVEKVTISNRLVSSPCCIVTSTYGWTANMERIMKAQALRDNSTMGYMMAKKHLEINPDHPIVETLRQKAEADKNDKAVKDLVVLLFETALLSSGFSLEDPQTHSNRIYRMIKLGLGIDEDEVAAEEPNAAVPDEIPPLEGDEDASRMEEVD
# [15] = molecular target: T3, Heat shock protein 75 kDa, mitochondrial (Homo sapiens, UniProt Q12931); assay: Inhibition of FITC-geldanamycin binding to N-terminal His-tagged recombinant human TRAP1 (60 to 704 residues) expressed in Escherichia coli preincubated for 2 hrs followed by Geldanamycin-FITC addition and measured after 5 hrs by fluorescence polarization competitive binding assay
# T3 sequence (Q12931 whole entry): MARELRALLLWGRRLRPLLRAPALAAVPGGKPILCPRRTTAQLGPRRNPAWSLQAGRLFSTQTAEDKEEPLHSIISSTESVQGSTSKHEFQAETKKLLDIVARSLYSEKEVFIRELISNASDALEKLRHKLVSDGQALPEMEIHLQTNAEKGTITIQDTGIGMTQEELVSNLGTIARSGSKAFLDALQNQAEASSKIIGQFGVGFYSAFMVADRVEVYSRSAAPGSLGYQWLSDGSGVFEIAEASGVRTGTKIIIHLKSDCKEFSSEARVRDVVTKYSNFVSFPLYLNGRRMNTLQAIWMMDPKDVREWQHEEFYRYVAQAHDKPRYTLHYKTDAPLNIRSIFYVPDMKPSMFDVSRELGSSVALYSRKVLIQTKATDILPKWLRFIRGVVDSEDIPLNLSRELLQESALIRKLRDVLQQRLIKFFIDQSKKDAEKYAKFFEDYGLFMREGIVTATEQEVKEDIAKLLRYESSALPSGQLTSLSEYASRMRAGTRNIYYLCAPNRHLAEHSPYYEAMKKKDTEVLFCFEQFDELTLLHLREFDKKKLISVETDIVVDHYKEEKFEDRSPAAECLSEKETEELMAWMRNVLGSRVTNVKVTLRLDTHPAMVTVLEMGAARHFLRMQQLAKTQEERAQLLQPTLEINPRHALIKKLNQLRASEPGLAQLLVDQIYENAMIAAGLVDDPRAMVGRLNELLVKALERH
# [16] = molecular target: T2, Endoplasmin; assay: Inhibition of FITC-geldanamycin binding to N-terminal His-tagged recombinant human GRP94 expressed in Escherichia coli preincubated for 2 hrs followed by Geldanamycin-FITC addition and measured after 5 hrs by fluorescence polarization competitive binding assay
# [17] = tested on: PANC-1; assay: Antiproliferative activity against human PANC1 cells after 48 hrs by MTS assay; format: functional, cell-based; conditions: PANC-1, 48 h
# [18] = tested on: MIA PaCa-2; assay: Antiproliferative activity against human MIAPaCa2 cells after 48 hrs by MTS assay; format: functional, cell-based; conditions: MIA PaCa-2, 48 h
# [19] = tested on: BXPC-3; assay: Antiproliferative activity against human BxPC3 cells after 48 hrs by MTS assay; format: functional, cell-based; conditions: BXPC-3, 48 h
compound,measurement,setting,value
CCCc1nc2c(=O)n(C)c(=O)nc-2n(C)n1,pIC50,[1],5.76
same,pKd,[2],6.69
Cn1nc(Cc2ccccc2)nc2c(=O)n(C)c(=O)nc1-2,pKd,[2],6.25
CCn1nc(-c2ccccc2)nc2c(=O)n(C)c(=O)nc1-2,pKd,[2],6.03
Cn1nc(-c2ccccc2)nc2c(=O)n(C)c(=O)nc1-2,pKd,[2],5.98
COc1ccc(CC(=O)c2ccc3c(c2OC)C=CC(C)(C)O3)cc1OC,pIC50,[3],6.85
COc1cccc(C(=O)NC2CC3CCC(C2)N3c2ccc(C(N)=O)cn2)c1C (stereo unspecified),pIC50,[4],6.19
CC(C)c1cc(C(=O)N2Cc3ccccc3C2)c(O)c2cnoc12,pKd,[5],5.07
CC(C)=CCc1c(O)cc2occ(-c3ccc(Cl)c(Cl)c3)c(=O)c2c1O,pIC50,[6],5.14
CCn1nc(-c2cccs2)nc2c(=O)n(C)c(=O)nc1-2,pKd,[2],6.51
Cc1nc2c(=O)n(C)c(=O)nc-2n(C)n1,pKd,[7],4.80
same,pKd,[2],6.44
C[C@@H]1C[C@H]2O[C@@H]2\C=C/C=C/C(=N\O)Cc2c(Cl)c(O)cc(O)c2C(=O)O1,pIC50,[8],7.41
COc1c(C)cnc(Cn2cnc3c(Cl)nc(N)nc32)c1C [BIIB021],pIC50,[9],6.51
CC1=C(O)C(=O)C=C2C1=CC=C1[C@@]2(C)CC[C@@]2(C)[C@@H]3C[C@](C)(C(=O)O)CC[C@]3(C)CC[C@]12C [CELASTROL],inhibition in vivo at 3 mg/kg,[10],80%
same,pIC50,[11],5.52
CN(C)c1cc2c(cc1Sc1nc3c(N)nccc3n1CCNCC(C)(C)C)OCO2 [CUDC-305],pIC50,[12],7.00
CO[C@@H]1[C@@H](OC(N)=O)[C@@H](O)[C@H](Oc2ccc3c(O)c(NC(=O)c4ccc(O)c(CC=C(C)C)c4)c(=O)oc3c2C)OC1(C)C [NOVOBIOCIN],pIC50,[9],3.59
CC(C)NCCCn1c(Sc2cc3c(cc2I)OCO3)nc2c(N)ncnc21 [PU-H71],pIC50,[9],7.05
CCc1cc(C(N)=O)ccc1-n1nc(C(C)C)c2c(-n3cnc(-c4cnn(C)c4)c3)ccnc21 [TAS-116],pKi,[13],7.46
same,pKi,[14],7.67
same,pKi,[15],< 4.30
same,pKi,[16],< 4.30
CC1=C(CO)C(=O)O[C@@H]([C@@H](C)[C@H]2CC[C@H]3[C@@H]4C[C@H]5O[C@]56[C@@H](O)C=CC(=O)[C@]6(C)[C@H]4CC[C@]23C)C1 [WITHAFERIN A],pIC50,[17],5.91
same,pIC50,[18],5.53
same,pIC50,[19],5.56
